# Entries after “also recorded” stand apart in the source; their conditions may differ.
# Key:
# [1] = tested on: murine peritoneal macrophages; assay: M1-polarised freshly isolated murine peritoneal macrophages, qPCR of M1 markers; type: cell-based, mouse; conditions: peritoneal macrophages pre-treated at 10^−7M, M1 polarised 6 hours; for expression of M1 markers (iNOS, IL1-β, Tnf-α): versus vehicle
# Procedure: Peritoneal macrophages from C57/B16 mice were isolated by peritoneal lavage. The peritoneal cavity of euthanised mice were filled with 5 ml ice cold PBS supplemented with 3% FBS. Cell-containing lavage fluid was removed using a needle and syringe and cells seeded into 12- or 6-well plates at 1×10^6 cells/ml in RPM1 growth medium supplemented with 10% charcoal-stripped FBS and 1% penicillin/streptomycin, were treated with 10^-7M E2 or E4 in serum free growth medium for 16 hours and polarised to M1-type cells using 100 ng/ml IFN-γ and 1 μg/ml LPS. Following 6- or 24-hours polarisation cells were collected for RNA isolation or flow cytometry. Following treatments, human and murine macrophages were collected in Trizol and RNA isolated using the Trizol plus RNA isolation kit (Invitrogen. Thermo Fisher) according to the manufacturer's instructions. RNA was reverse transcribed to cDNA using GoScript reverse transcriptase (Promega). Quantitative real-time PCR was carried out using 2×Takyon SYBR Green mastermix and a CFX Connect thermocycler. Primers for ERα and ERβ were used to explore changes in ER expression after treatment of MEK and MDF with E2 and E4. To investigate the effect of E2 and E4 on MEK differentiation and the expression of ECM proteins by MDF, primers for. Snail, keratin-1 and fibronectin, collagen I. MMP-2 and MMP-9 were used. Primers for INOS. IL-1B and Tnf-α or Ccl17 were used to assess M1/M2 polarisation status. Primers for GAPDH were used to normalise data. Relative gene expression was set to vehicle controls or M0 expression unless otherwise stated. Finally, the anti-inflammatory effects E2 and E4 were evaluated in freshly isolated murine peritoneal macrophages. Unlike the BMDM protocol, the already differentiated peritoneal macrophages were immediately pre-treated with E2 (10^−7M) or E4 (10^−7M), followed by M1 polarisation using IFN-γ and LPS for 6 hours. […] Note, the overall level of marker expression was higher in these cells. […] The observed anti-inflammatory effects of E4 were broadly similar to those observed for E2.
# THP1 cells = assay: THP1 macrophage polarisation, qPCR of M1/M2 markers; type: cell-based, human; conditions: range of concentrations; for expression of Tnf-α (M1 marker): M1 polarised THP1 cells; for expression of CCL17 (M2 marker): M2 polarised THP1 cells
# Procedure: THP1 cells were maintained in RPM1 growth medium supplemented with 10% heat-inactivated FBS and 1% penicillin/streptomycin. Cells were seeded into 12- or 6-well plates at 2×10^5 cells/ml and treated with phorbol 12-myristate 13-acetate (PMA) to induce differentiation to macrophages. Cells were cultured for 24 hours in complete growth medium without PMA, followed by a 6 hour serum starve prior to polarisation. Cells were polarised to M1 macrophages using 20 ng/ml IFN-γ and 10 pg/ml LPS (from E, coli) for 6 or 24 hours and collected for RNA isolation or flow cytometry. Following treatments, human and murine macrophages were collected in Trizol and RNA isolated using the Trizol plus RNA isolation kit (Invitrogen. Thermo Fisher) according to the manufacturer's instructions. RNA was reverse transcribed to cDNA using GoScript reverse transcriptase (Promega). Quantitative real-time PCR was carried out using 2×Takyon SYBR Green mastermix and a CFX Connect thermocycler. Primers for ERα and ERβ were used to explore changes in ER expression after treatment of MEK and MDF with E2 and E4. To investigate the effect of E2 and E4 on MEK differentiation and the expression of ECM proteins by MDF, primers for. Snail, keratin-1 and fibronectin, collagen I. MMP-2 and MMP-9 were used. Primers for INOS. IL-1B and Tnf-α or Ccl17 were used to assess M1/M2 polarisation status. Primers for GAPDH were used to normalise data. Relative gene expression was set to vehicle controls or M0 expression unless otherwise stated. The relative anti-inflammatory effects of both E2 and E4 were evaluated in vitro. First, the human monocyte THP1 cell line was used to screen several concentrations of E2 and E4. THP1 cells were differentiated to a macrophage phenotype by treatment with PMA, followed by polarisation to an M1 or M2 phenotype (FIG. 23). Successful polarisation was confirmed by profiling the expression of the M1 marker (TNF-α) and the M2 marker (CCL17). The effects of co-treatment with a range of E2 or E4 concentrations were evaluated.
# MMP2 = assay: Zymography of supernatants from human dermal fibroblasts; type: cell-based; conditions: HDFs from 3 independent donors, versus control
# Procedure: In vitro cultured murine fibroblasts were treated with either E2, E4, DPN or PPT at 10^−7M. As previously reported. […] Next, zymography was performed on cell supernatants from HDFs treated with either E2 or E4, to evaluate the effect of E2 and E4 on cell-derived MMP activity. […] The magnitude of the effect (and statistical significance) was greater in cells treated with E4. No MMP9 activity was detected in any treatment group. Finally, we explored the effect of E2 and E4 on murine fibroblast expression of extracellular matrix genes, specifically collagen 1 (Colal) and fibronectin (Fn1) (FIG. 20).
# [2] = tested on: murine dermal fibroblasts (MDF); assay: qPCR gene expression in murine dermal fibroblasts; type: cell-based, mouse; conditions: for expression of ERα and ERβ: MDF, 10^−7M, qPCR
# Text: Primary human dermal fibroblasts (HDF) were isolated from abdominal skin or leg skin. Primary neonatal normal human epidermal keratinocytes (NHEK) were purchased (Lonza). Murine dermal fibroblasts (MDF), murine epidermal keratinocytes (MEK), murine peritoneal macrophages and murine bone marrow were isolated from C57/B16 (wt). NDb (Lepr+/−) or Db (Lepr−/−) mice. Fibroblasts were isolated and cultured in DMEM supplemented with 10% heat inactivated FBS. 1% penicillin/streptomycin and 1% amphotericin B. At least 4 days prior to performing assays cells were switched to DMEM supplemented with 5% charcoal-stripped FBS. Following treatments, human and murine macrophages were collected in Trizol and RNA isolated using the Trizol plus RNA isolation kit (Invitrogen. Thermo Fisher) according to the manufacturer's instructions. RNA was reverse transcribed to cDNA using GoScript reverse transcriptase (Promega). Quantitative real-time PCR was carried out using 2×Takyon SYBR Green mastermix and a CFX Connect thermocycler. Primers for ERα and ERβ were used to explore changes in ER expression after treatment of MEK and MDF with E2 and E4. To investigate the effect of E2 and E4 on MEK differentiation and the expression of ECM proteins by MDF, primers for. Snail, keratin-1 and fibronectin, collagen I. MMP-2 and MMP-9 were used. Primers for INOS. IL-1B and Tnf-α or Ccl17 were used to assess M1/M2 polarisation status. Primers for GAPDH were used to normalise data. Relative gene expression was set to vehicle controls or M0 expression unless otherwise stated. In vitro cultured murine fibroblasts were treated with either E2, E4, DPN or PPT at 10^−7M. As previously reported. […] Next, zymography was performed on cell supernatants from HDFs treated with either E2 or E4, to evaluate the effect of E2 and E4 on cell-derived MMP activity. […] The magnitude of the effect (and statistical significance) was greater in cells treated with E4. No MMP9 activity was detected in any treatment group. Finally, we explored the effect of E2 and E4 on murine fibroblast expression of extracellular matrix genes, specifically collagen 1 (Colal) and fibronectin (Fn1) (FIG. 20).
# [3] = fibroblasts derived from diabetic (db/db) mice
# [4] = fibroblasts derived from wild-type mice
SMILES,"expression of M1 markers (iNOS, IL1-β, Tnf-α) [1]",expression of Tnf-α (M1 marker) (THP1 cells),expression of CCL17 (M2 marker) (THP1 cells),MMP2 activity in cell supernatants (MMP2),expression of ERα and ERβ [2],"expression of collagen 1 and fibronectin (Fn1) [2, 3]","expression of collagen 1 and fibronectin (Fn1) [2, 4]",expression of IL1-β [1]
"C[C@]12CC[C@@H]3c4ccc(O)cc4CC[C@H]3[C@@H]1CC[C@@H]2O [Formulation E2, 17β-estradiol, reference compound]",strong trend towards reduced expression,strong trend towards reduced expression of Tnf-α in M1 polarised cells,increased expression of CCL 17 in M2 polarised cells,significantly reduced MMP2 activity versus control,upregulated expression of both ERα and ERβ,trend towards increased expression of both Co1a1 and Fn1,no effect was observed following treatment,
"C[C@]12CC[C@@H]3c4ccc(O)cc4CC[C@H]3[C@@H]1[C@@H](O)[C@@H](O)[C@@H]2O [Formulation E4, 1,3,5 (10)-estratrien-3,15alpha, 16alpha, 17beta-tetrol]",strong trend towards reduced expression,strong trend towards reduced expression of Tnf-α in M1 polarised cells,increased expression of CCL 17 in M2 polarised cells,significantly reduced MMP2 activity versus control,increases expression of both ERα and ERβ,trend towards increased expression of both Co1a1 and Fn1; also recorded: reached statistical significance for fibronectin (Fn1),no effect was observed following treatment,achieved statistical significance

# Reference: patent US20260115202A1, “TOPICAL COMPOSITIONS COMPRISING AN ESTETROL COMPONENT AND USE OF SAID COMPOSITIONS FOR WOUND HEALING” (NEURALIS SA, priority 2022, published 2026)
